Our source for the IC50 and inhibition values is patent publication US20260000692A1, “Substituted N-(Pyridin-2-yl)Acetamide Derivatives as CDK12/13 Inhibitors” (Aurigene Oncology Limited, priority 2022, published 2026).

The experiment deals with CDK12 (Homo sapiens, UniProt Q9NYV4). In words: Biochemical assay for CDK12 (LANCE TR-FRET, IC50 determination). The settings on record: for IC50: CDK12, IC50 class, read-out: IC50 μM (in range); for inhibition at 10 µM: compound at 10 μM, read-out: CDK12 % Inhibition @ 10 μM. Summed up: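 30 nM CDK12 phosphorylated 100 nM ULight-4E-BP1 (Thr37/Thr46) peptide at 100 µM ATP, as printed, in HEPES pH 7.5 buffer with MgCl2 and DTT. Compound and enzyme were preincubated 60 min, then reacted 60 min at room temperature before stopping with EDTA and Eu anti-phospho antibody. TR-FRET 665/615 ratio gave sigmoidal IC50 fits.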
(In general: Time-resolved FRET reads energy transfer from a long-lived donor to a nearby acceptor.)

Chain of CDK12 (Q9NYV4 whole entry): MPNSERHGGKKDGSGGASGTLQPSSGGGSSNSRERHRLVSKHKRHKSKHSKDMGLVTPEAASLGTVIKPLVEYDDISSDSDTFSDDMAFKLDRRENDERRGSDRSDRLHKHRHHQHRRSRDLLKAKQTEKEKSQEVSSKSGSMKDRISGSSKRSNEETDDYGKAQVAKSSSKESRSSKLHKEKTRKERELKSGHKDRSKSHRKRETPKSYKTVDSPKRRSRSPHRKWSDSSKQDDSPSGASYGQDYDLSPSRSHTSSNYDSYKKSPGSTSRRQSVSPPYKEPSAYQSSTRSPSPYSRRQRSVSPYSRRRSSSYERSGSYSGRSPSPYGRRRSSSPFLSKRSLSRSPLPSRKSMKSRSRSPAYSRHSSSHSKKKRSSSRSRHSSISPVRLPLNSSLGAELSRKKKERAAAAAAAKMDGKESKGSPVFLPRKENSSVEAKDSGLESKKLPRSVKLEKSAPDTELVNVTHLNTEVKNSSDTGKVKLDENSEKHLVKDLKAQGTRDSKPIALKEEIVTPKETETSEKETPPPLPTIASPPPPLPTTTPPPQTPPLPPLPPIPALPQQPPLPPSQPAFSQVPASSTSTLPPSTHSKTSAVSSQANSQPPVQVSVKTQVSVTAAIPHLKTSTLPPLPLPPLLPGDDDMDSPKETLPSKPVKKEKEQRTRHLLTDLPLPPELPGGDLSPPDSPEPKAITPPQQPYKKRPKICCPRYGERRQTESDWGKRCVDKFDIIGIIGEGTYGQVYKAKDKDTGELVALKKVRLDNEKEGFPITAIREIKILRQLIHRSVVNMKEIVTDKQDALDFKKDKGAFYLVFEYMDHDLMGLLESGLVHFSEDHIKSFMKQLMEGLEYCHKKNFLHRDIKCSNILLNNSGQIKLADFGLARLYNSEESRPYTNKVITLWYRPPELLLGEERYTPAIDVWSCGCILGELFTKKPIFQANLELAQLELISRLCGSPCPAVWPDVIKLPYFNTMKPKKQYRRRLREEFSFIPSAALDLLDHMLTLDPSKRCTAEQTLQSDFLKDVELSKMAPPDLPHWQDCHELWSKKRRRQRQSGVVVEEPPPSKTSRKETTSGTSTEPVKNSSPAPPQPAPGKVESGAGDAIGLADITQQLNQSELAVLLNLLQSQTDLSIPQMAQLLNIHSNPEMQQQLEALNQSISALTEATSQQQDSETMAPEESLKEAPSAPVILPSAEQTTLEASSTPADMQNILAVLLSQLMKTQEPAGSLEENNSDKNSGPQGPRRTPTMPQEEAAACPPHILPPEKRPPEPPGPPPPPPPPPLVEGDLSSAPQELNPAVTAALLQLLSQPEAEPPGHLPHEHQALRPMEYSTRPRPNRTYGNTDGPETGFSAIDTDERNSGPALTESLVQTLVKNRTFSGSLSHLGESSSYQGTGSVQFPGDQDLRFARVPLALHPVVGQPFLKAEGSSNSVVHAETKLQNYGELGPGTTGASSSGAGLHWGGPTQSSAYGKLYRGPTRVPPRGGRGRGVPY
Chain of CDK12 (O75909 whole entry partner): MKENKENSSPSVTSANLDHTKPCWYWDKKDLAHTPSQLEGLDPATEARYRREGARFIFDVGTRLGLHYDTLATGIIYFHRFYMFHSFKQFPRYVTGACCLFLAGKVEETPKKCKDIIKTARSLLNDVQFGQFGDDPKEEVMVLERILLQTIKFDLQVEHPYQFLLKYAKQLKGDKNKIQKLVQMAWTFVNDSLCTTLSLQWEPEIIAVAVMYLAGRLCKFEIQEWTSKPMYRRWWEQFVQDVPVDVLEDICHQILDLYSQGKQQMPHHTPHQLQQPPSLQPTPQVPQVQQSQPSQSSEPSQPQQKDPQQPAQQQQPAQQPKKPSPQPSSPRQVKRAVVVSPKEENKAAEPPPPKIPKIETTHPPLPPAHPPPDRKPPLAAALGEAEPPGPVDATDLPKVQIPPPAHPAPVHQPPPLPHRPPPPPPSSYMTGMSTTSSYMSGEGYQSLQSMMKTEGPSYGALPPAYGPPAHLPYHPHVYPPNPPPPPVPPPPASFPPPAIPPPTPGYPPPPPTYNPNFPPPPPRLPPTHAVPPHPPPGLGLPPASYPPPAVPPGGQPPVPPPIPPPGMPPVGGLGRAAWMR

`N#CN1CCC=C(c2ccc(CC(=O)Nc3cnc(Cl)cn3)cn2)C1` [Compound 108, N-(5-chloropyrazin-2-yl)-2-(1′-cyano-1′,2′,5′,6′-tetrahydro-[2,3′-bipyridin]-5-yl)acetamide]: the IC50 (usually the concentration at which inhibition is half-maximal) lay in the range of 0.01 to 0.1 µM and the inhibition (in general, the change of the read-out against control, counted positive when it falls) at 10 µM stood at 85%.

As to `CN(C)c1cc(NC(=O)Cc2ccc(C3=CCCN(C#N)C3)nc2)ncc1Cl` [Compound 109, N-(5-chloro-4-(dimethylamino)pyridin-2-yl)-2-(1′-cyano-1′,2′,5′,6′-tetrahydro-[2,3′-bipyridin]-5-yl)acetamide], the 50% inhibitory concentration (IC50) was 0.01 to 0.1 µM and the inhibition at 10 µM stood at 89%.

Regarding `COc1cc(NC(=O)C(C)(C)c2ccc(C3=CCCN(C#N)C3)nc2)ncc1Cl` [Compound 110, N-(5-chloro-4-methoxypyridin-2-yl)-2-(1′-cyano-1′,2′,5′,6′-tetrahydro-[2,3′-bipyridin]-5-yl)-2-methylpropanamide], the inhibition at 10 µM was 57%.

`COc1cc(NC(=O)Cc2ccc(C3=CCCN(C#N)C3)cn2)ncc1Cl` [Compound 111, N-(5-chloro-4-methoxypyridin-2-yl)-2-(1′-cyano-1′,2′,5′,6′-tetrahydro-[3,3′-bipyridin]-6-yl)acetamide]: the IC50 was in the range of 0.01 to 0.1 µM and the inhibition at 10 µM was 94%.

Turning to `COc1cc(NC(=O)Cc2ccc(C3=CCCN(C#N)C3)cc2Cl)ncc1Cl` [Compound 112, 2-(2-chloro-4-(1-cyano-1,2,5,6-tetrahydropyridin-3-yl)phenyl)-N-(5-chloro-4-methoxypyridin-2-yl)acetamide], the IC50 was 0.01 to 0.1 µM and the inhibition at 10 µM came out at 90%.

In the case of `COc1cc(NC(=O)Cc2ccc(C3=CCCN(C#N)C3)cc2F)ncc1Cl` [Compound 113, N-(5-chloro-4-methoxypyridin-2-yl)-2-(4-(1-cyano-1,2,5,6-tetrahydropyridin-3-yl)-2-fluorophenyl)acetamide], the IC50 was 0.01 to 0.1 µM and the inhibition at 10 µM is 92%.

On to `COc1cc(NC(=O)Cc2ccc(C3=CCCN(C#N)C3)cc2)ncc1Cl` [Compound 114, N-(5-chloro-4-methoxypyridin-2-yl)-2-(4-(1-cyano-1,2,5,6-tetrahydropyridin-3-yl)phenyl)acetamide], for which the IC50 is less than 0.01 µM and the inhibition at 10 µM amounted to 91%.

With `COc1cc(NC(=O)Cc2ccc(C3=CC4CN(C#N)CC4C3)cc2)ncc1Cl` (stereo not shown) [Compound 115, N-(5-chloro-4-methoxypyridin-2-yl)-2-(4-(2-cyano-1,2,3,3a,4,6a-hexahydrocyclopenta[c]pyrrol-5-yl)phenyl)acetamide], the IC50 was in the range of 0.01 to 0.1 µM and the inhibition at 10 µM worked out at 98%.

In the case of `COc1cc(NC(=O)Cc2ccc(C3=CCCN(C#N)C3)c(OC)c2)ncc1Cl` [Compound 116, N-(5-chloro-4-methoxypyridin-2-yl)-2-(4-(1-cyano-1,2,5,6-tetrahydropyridin-3-yl)-3-methoxyphenyl)acetamide], the inhibition at 10 µM was determined as 23%.

In the case of `COc1cc(NC(=O)Cc2cnc(C3=CCCN(C#N)C3)c(OC)c2)ncc1Cl` [Compound 117, N-(5-chloro-4-methoxypyridin-2-yl)-2-(1′-cyano-3-methoxy-1′,2′,5′,6′-tetrahydro-[2,3′-bipyridin]-5-yl)acetamide], the IC50 is less than 0.01 µM and the inhibition at 10 µM came to 88%.

In the case of `CN1CC[C@H](Oc2cc(NC(=O)Cc3ccc(C4CCN(C#N)CC4)nc3)ncc2Cl)C1` [Compound 118, (S)-N-(5-chloro-4-((1-methylpyrrolidin-3-yl)oxy)pyridin-2-yl)-2-(6-(1-cyanopiperidin-4-yl)pyridin-3-yl)acetamide], the IC50 was greater than 0.1 µM and the inhibition at 10 µM came out at 81%.

As for `CN1CC[C@@H](Oc2cc(NC(=O)Cc3ccc(C4CCN(C#N)CC4)nc3)ncc2Cl)C1` [Compound 119, (R)-N-(5-chloro-4-((1-methylpyrrolidin-3-yl)oxy)pyridin-2-yl)-2-(6-(1-cyanopiperidin-4-yl)pyridin-3-yl)acetamide], the IC50 is greater than 0.1 µM and the inhibition at 10 µM came to 78%.

For the molecule `COc1cc(NC(=O)Cc2cnc(C3=CCN(C#N)CC3)c(OC)c2)ncc1Cl` [Compound 120, N-(5-chloro-4-methoxypyridin-2-yl)-2-(1′-cyano-3-methoxy-1′,2′,3′,6′-tetrahydro-[2,4′-bipyridin]-5-yl)acetamide], the IC50 was less than 0.01 µM and the inhibition at 10 µM came to 89%.

In the case of `COc1cc(NC(=O)Cc2cnc(C3CCN(C#N)CC3)c(OC)c2)ncc1Cl` [Compound 121, N-(5-chloro-4-methoxypyridin-2-yl)-2-(6-(1-cyanopiperidin-4-yl)-5-methoxypyridin-3-yl)acetamide], the IC50 was less than 0.01 µM and the inhibition at 10 µM worked out at 82%.

In the case of `COc1cc(CC(=O)Nc2cc(O[C@@H]3CCOC3)c(Cl)cn2)cnc1C1=CCN(C#N)CC1` [Compound 122, (R)-N-(5-chloro-4-((tetrahydrofuran-3-yl)oxy)pyridin-2-yl)-2-(1′-cyano-3-methoxy-1′,2′,3′,6′-tetrahydro-[2,4′-bipyridin]-5-yl)acetamide], the half-inhibitory concentration (IC50) was less than 0.01 µM and the inhibition at 10 µM turned out to be 90%.

For `COc1cc(CC(=O)Nc2cc(O[C@@H]3CCOC3)c(Cl)cn2)cnc1C1CCN(C#N)CC1` [Compound 123, (R)-N-(5-chloro-4-((tetrahydrofuran-3-yl)oxy)pyridin-2-yl)-2-(6-(1-cyanopiperidin-4-yl)-5-methoxypyridin-3-yl)acetamide], the IC50 was less than 0.01 µM and the inhibition at 10 µM worked out at 86%.

Consider `COc1cc(NC(=O)Cc2ccc(C3CCN(C#N)CC3)nc2)ncc1C1CC1` [Compound 124, 2-(6-(1-cyanopiperidin-4-yl)pyridin-3-yl)-N-(5-cyclopropyl-4-methoxypyridin-2-yl)acetamide], for which the IC50 was greater than 0.1 µM and the inhibition at 10 µM worked out at 86%.

As for `CN1CCC[C@H](Oc2cc(NC(=O)Cc3ccc(C4CCN(C#N)CC4)nc3)ncc2Cl)C1` [Compound 125, (S)-N-(5-chloro-4-((1-methylpiperidin-3-yl)oxy)pyridin-2-yl)-2-(6-(1-cyanopiperidin-4-yl)pyridin-3-yl)acetamide], the IC50 was greater than 0.1 µM and the inhibition at 10 µM stood at 72%.

As to `CN1CCC[C@@H](Oc2cc(NC(=O)Cc3ccc(C4CCN(C#N)CC4)nc3)ncc2Cl)C1` [Compound 126, (R)-N-(5-chloro-4-((1-methylpiperidin-3-yl)oxy)pyridin-2-yl)-2-(6-(1-cyanopiperidin-4-yl)pyridin-3-yl)acetamide], the 50% inhibitory concentration (IC50) was greater than 0.1 µM and the inhibition at 10 µM came to 52%.

For `COc1cc(NC(=O)Cc2ccc(C3=CCN(C#N)CC3)cn2)ncc1Cl` [Compound 127, N-(5-chloro-4-methoxypyridin-2-yl)-2-(1′-cyano-1′,2′,3′,6′-tetrahydro-[3,4′-bipyridin]-6-yl)acetamide], the IC50 lay within 0.01 to 0.1 µM and the inhibition at 10 µM was found to be 86%.

Consider `CNC(=O)[C@H](C)Oc1cc(NC(=O)Cc2cnc(C3CCN(C#N)CC3)c(OC)c2)ncc1Cl` [Compound 128, (S)-2-((5-chloro-2-(2-(6-(1-cyanopiperidin-4-yl)-5-methoxypyridin-3-yl)acetamido)pyridin-4-yl)oxy)-N-methylpropanamide], for which the IC50 is less than 0.01 µM and the inhibition at 10 µM was 83%.
